Results: publication PMC8637530, “Modulatory Actions of the Glycine Receptor β Subunit on the Positive Allosteric Modulation of Ethanol in α2 Containing Receptors” (Frontiers in Molecular Neuroscience, 2021)

Experiments:
Test in all cases: whole-cell patch clamp, HEK293
Type in all cases: cell-based
Details in all cases: -60 mV, 20-24 °C, pH 7.4; agonist
[1] = test system: T1, α2 GlyR (homomeric)
T1 construct: gene GLRA2; recombinant homomeric receptor expressed in HEK293 cells
Text: whole-cell patch clamp, HEK293 on α2 GlyR (homomeric)

[2] = test system: T2, α1 GlyR (homomeric)
T2 construct: gene GLRA1; recombinant homomeric receptor expressed in HEK293 cells; EGFP co-transfected
Text: whole-cell patch clamp, HEK293 on α1 GlyR (homomeric)

[3] = test system: T3, α1β GlyR (heteromeric)
T3 construct: gene GLRA1; recombinant heteropentamer in HEK293 cells, excess beta cDNA (1 μg alpha/EGFP plus 4 μg beta)
Text: whole-cell patch clamp, HEK293 on α1β GlyR (heteromeric)

EC50 [1]: 86 ± 2 µM | EC50 [2]: […] | EC50 [3]: […]
Structure (SMILES): NCC(=O)O [Glycine]
